Read-outs that look alike come from different tables or passages of the source.
Assays:
[1] = tested on: endothelin-induced contraction of iliac artery specimen
Description: Effect on Endothelin-induced Contraction of Iliac Artery Specimen from Rabbit
The iliac artery was excised from a rabbit and made into a spiral specimen of 1 mm wide and 10 mm long. The specimen was stripped of the endothelial cells and suspended in a 5 ml Magnus tube filled with Krebs-Henseleit solution saturated with a gas mixture of O2 (95%) and CO2 (5%), and the change in tension was isometrically measured and recorded.
The effects of a compound of the present invention on the dose-response curve obtained by cumulative addition of endothelin-1 to the Magnus tube were investigated. A compound of the present invention was added to the Magnus tube at a final concentration of 10 μM 20 minutes before the addition of endothelin-1.

[2] = 10 mg/kg as sodium salt in water, SD male rats, bioassay
Description: Concentration in Rat Plasma after Oral Administration
SD male rats (8 weeks old, n=3) were subjected to cannulation of the carotid artery beforehand and after the recovery from the surgery, subjected to a fast of one night for the test. The sodium salt of the diastereomer A prepared in Example 14, which is a representative compound of the present invention, was dissolved in water, and the resulting aqueous solution (concentration: 2.0 mg/ml) was forcibly administrated into the stomach in an amount of 10 mg/kg by gavage. Before the administration and 1, 4 and 8 hours after the administration, 120 μl of the blood was withdrawn from the cannulae in the carotid arteries with the aid of heparin and the plasma was separated by cold centrifugation. 25 μl of portions of the plasma were deproteinized by adding 100 μl of ethanol and centrifuged (10,000×g, 10 minutes, 0° C.) under cooling. 80 μl portions of the supernatants was used for a bioassay of the concentration in plasma.

ETB receptor = molecular target: T1, ETB receptor (Homo sapiens, UniProt P24530); assay: Endothelin binding inhibition test on human endothelin receptors ([125I]endothelin-1), ETB; conditions: human cell membranes, 20 pM [125I]endothelin-1, 4 hours incubation
T1 construct: host or cells: human Girardi heart cells (membranes)
T1 sequence (P24530 27-442): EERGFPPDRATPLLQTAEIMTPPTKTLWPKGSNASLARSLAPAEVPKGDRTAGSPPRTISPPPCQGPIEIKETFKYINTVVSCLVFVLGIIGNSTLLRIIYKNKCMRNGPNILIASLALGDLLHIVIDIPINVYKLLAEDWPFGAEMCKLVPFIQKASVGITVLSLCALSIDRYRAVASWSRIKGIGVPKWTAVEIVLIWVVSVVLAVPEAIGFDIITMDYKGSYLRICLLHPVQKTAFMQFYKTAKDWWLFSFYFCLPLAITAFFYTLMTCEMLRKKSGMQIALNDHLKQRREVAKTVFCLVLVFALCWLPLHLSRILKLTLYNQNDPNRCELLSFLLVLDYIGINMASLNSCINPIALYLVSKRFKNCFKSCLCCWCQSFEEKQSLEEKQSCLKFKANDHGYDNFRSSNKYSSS
Description: (§1) Endothelin Binding Inhibition Test on Human Endothelin Recepters
The human neuroblastoma SK-N-MC cells or the human Giradi heart cells, purchased from Dainippon Seiyaku (Japan), were cultured in minimal essential medium supplemented with fetal calf serum. The cells were collected and homogenized in 10 mM MOPS buffer (pH 7.4) containing 154 mM NaCl, 10 mM KCl, 0.8 mM CaCl2 and 20% sucrose at 4° C. using a polytron homogenizer. The homogenate was then centrifuged at 10,000×g for 15 minutes. The supernatant was centrifuged at 100,000×g for 1 hour at 4° C. Then the pellet was washed with 5 mM HEPES/Tris buffer (pH 7.4). […] After the filtration, the filters were washed with buffer B, and the radioactivity on the filters was measured in a γ counter. Nonspecific binding was determined in the presence of 200 nM endothelin-1. […]
(§2) where (A): for nonspecific binding including 200 nM of unlabeled endothelin-1 as the final concentration, (B): for total binding including labeled endothelin-1 without a test compound, and (C): for binding including labeled endothelin-1 with a concentration of a test compound, show the radioactivity.

ETA receptor = molecular target: T2, ETA receptor (Homo sapiens, UniProt P25101); assay: Endothelin binding inhibition test on human endothelin receptors ([125I]endothelin-1), ETA
T2 construct: host or cells: human neuroblastoma SK-N-MC cells (membranes)
T2 sequence (P25101 21-427): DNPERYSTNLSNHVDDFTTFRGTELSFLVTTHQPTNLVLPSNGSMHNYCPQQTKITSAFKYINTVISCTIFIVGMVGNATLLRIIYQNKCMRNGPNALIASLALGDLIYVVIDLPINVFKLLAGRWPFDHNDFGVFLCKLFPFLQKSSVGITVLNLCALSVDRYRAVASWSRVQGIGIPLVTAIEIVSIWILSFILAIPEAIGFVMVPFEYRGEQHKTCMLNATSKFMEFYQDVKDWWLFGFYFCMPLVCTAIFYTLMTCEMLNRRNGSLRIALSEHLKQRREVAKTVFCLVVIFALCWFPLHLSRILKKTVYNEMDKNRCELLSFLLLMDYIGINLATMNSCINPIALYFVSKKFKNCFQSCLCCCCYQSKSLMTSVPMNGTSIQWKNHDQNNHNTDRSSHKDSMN
Description: as §1
The human neuroblastoma SK-N-MC cells or the human Giradi heart cells, purchased from Dainippon Seiyaku (Japan), were cultured in minimal essential medium supplemented with fetal calf serum. The cells were collected and homogenized in 10 mM MOPS buffer (pH 7.4) containing 154 mM NaCl, 10 mM KCl, 0.8 mM CaCl2 and 20% sucrose at 4° C. using a polytron homogenizer. The homogenate was then centrifuged at 10,000×g for 15 minutes. The supernatant was centrifuged at 100,000×g for 1 hour at 4° C. Then the pellet was washed with 5 mM HEPES/Tris buffer (pH 7.4). The resulting membranes (50 μl) were mixed with [^125I]endothelin-1 (20 pM) and 4 μl of DMSO solution of a test compound in 67 mM Tris/HCl buffer (pH 7.4) containing 0.13 mM phenylmethanesulfonyl fluoride, 1.3 μM pepstatin, 2.7 μM leupeptin, 1.3 mM 1,10-phenanthroline, 1.3 mM EDTA, 13 μM CaCl2, 13 μM MgCl2 and 0.13% bovine serum albumin (BSA) in a total volume of 0.35 ml. After 4 hours incubation, cold 5 mM HEPES/Tris buffer (pH 7.4) containing 0.3% BSA (Buffer B) was added to the mixture, and free and bound [^125I]endothelin-1 were separated by filtration using Whatman GF/C glass fiber filters. After the filtration, the filters were washed with buffer B, and the radioactivity on the filters was measured in a γ counter. Nonspecific binding was determined in the presence of 200 nM endothelin-1.
The concentration of a test compound of the present invention causing 50% inhibition of [^125I]endothelin-1 binding (IC50 value) was derived by the following [^125I]endothelin-1 binding inhibition D (%): [formula]
as §2

Compound: COc1ccc([C@@H]2c3nc(NC(C)C)ccc3[C@H](c3ccc4c(c3)OC(F)(F)O4)[C@H]2C(=O)O)c(CC(C)CO)c1 (single isomer, unassigned; diastereomer a) [diastereomer A prepared in Example 14]
- change in the maximum response to endothelin-1 ([1]; concentrations from 0.1 μM to 10 μM): no change in the maximum response
- effect on the dose-response curve for endothelin-1 ([1]; concentrations from 0.1 μM to 10 μM, added 20 minutes before endothelin-1): appreciably shifted the dose-response curve for endothelin-1 to the right
- effect of the compound by itself on the artery specimen ([1]; without endothelin-1): no effect on the artery specimen by itself
- concentration in rat plasma ([2]; 1 hour after oral administration): 452 ng/mL
- concentration in rat plasma ([2]; 4 hours after oral administration): 124 ng/mL
- concentration in rat plasma ([2]; 8 hours after oral administration): 203 ng/mL

Compound: COc1ccc([C@@H]2c3nc(NC(C)C)ccc3[C@H](c3ccc4c(c3)OC(F)(F)O4)[C@H]2C(=O)O)c(CC(C)C(=O)O)c1 (single isomer, unassigned; diastereomer a) [Diastereomer A of example 18]
- IC50 (ETB receptor): 78 nM
- binding-inhibitory activity to ETA receptor compared with ETB receptor (in words) (ETA receptor): far higher binding-inhibitory activity to ETA receptor than to ETB receptor
- IC50 (ETA receptor; human cell membranes, 20 pM [125I]endothelin-1, 4 hours incubation): 0.056 nM
- ETB/ETA (ETA receptor; ratio of IC50 values): ETB/ETA = 1400
